Reference: patent publication US10934286B2, “Heterocyclic sulfones as ROR gamma modulators” (BRISTOL-MYERS SQUIBB COMPANY, priority 2016, dated 2021)
Where a name gives a salt, the structure may show the parent alone.

Biological target: T1, RORγ receptor (Homo sapiens, UniProt P51449)
T1 construct: Jurkat pEx/Gal/hRORγ CLBD/HYG pG51uc/blast; expressed in transfected cells
T1 sequence (P51449 269-508 limits assumed): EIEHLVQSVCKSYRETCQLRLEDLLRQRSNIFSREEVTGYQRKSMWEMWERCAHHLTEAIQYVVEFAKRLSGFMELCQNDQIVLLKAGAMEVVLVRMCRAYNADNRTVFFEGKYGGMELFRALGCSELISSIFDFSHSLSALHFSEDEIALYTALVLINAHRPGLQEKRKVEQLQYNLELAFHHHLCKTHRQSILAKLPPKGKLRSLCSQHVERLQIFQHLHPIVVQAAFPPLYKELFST
Assay: General RORγ Gal4 reporter assay (inverse agonist activity, inhibition of luminescence)
Type: cell-based
Settings: Gal4-luciferase reporter in Jurkat cells stably over-expressing hRORγ LBD; overnight incubation; 40 μM to 0.67 nM
Method: General RORγ Gal4 Reporter Assay Inverse agonist activity of potential ligands to RORγ was measured by inhibition of luminescence in a Gal4-luciferase reporter assay in Jurkat cells.
The following day, cells were lysed with 10 μL of Steady-Glo Luciferase Assay System (Promega Cat. No. EZ550), and analyzed immediately. IC50 values were determined.

SMILES	IC50 [nM]
NC(=O)[C@H]1CC[C@H](C(=O)N2CCC3(S(=O)(=O)c4ccc(F)cc4)c4ncc(C(F)(C(F)(F)F)C(F)(F)F)cc4CCC23)CC1 (some centres unmarked) [Example 5]	78
O=C(CC1(O)CCS(=O)(=O)C1)N1CCC2(S(=O)(=O)c3ccccc3)c3ccc(C(F)(C(F)(F)F)C(F)(F)F)nc3CCC12 (centres unmarked) [Example 11]	21
N#CCCN1C(=O)CC[C@H]1C(=O)N1CCC2(S(=O)(=O)c3ccccc3)c3ccc(C(F)(C(F)(F)F)C(F)(F)F)nc3CCC12 (some centres unmarked) [Example 19]	13
O=C(C1CCS(=O)(=O)CC1)N1CCC2(S(=O)(=O)c3ccc(F)cc3)c3ncc(C(F)(C(F)(F)F)C(F)(F)F)cc3CCC12 (centres unmarked) [Example 8]	91
O=C(O)C1CC2(C1)CC(C(=O)N1CCC3(S(=O)(=O)c4ccc(F)cc4)c4ncc(C(F)(C(F)(F)F)C(F)(F)F)cc4CCC13)C2 (centres unmarked) [Example 9]	87
O=C(O)[C@H]1CC[C@H](C(=O)N2CCC3(S(=O)(=O)c4ccccc4)c4ccc(C(F)(C(F)(F)F)C(F)(F)F)nc4CCC23)CC1 (some centres unmarked) [Example 28]	8
N#CCCN1C(=O)CC[C@H]1C(=O)N1CCC2(S(=O)(=O)c3ccc(F)cc3)c3ccc(OCc4c(Cl)cccc4Cl)nc3CCC12 (single isomer, unassigned) [Example 39]	15
[2H]C([2H])([2H])N1C(=O)[C@H](F)C[C@H]1C(=O)N1CCC2(S(=O)(=O)c3ccc(F)cc3)c3ncc(C(F)(C(F)(F)F)C(F)(F)F)cc3CCC12 (some centres unmarked) [Example 2]	69
[2H]C([2H])([2H])N1C(=O)[C@H](F)C[C@H]1C(=O)N1CCC2(S(=O)(=O)c3ccccc3)c3ccc(C(F)(C(F)(F)F)C(F)(F)F)nc3CCC12 (some centres unmarked) [Example 66]	31
C[C@H]1C[C@H](C(=O)O)CC[C@H]1C(=O)N1CCC2(S(=O)(=O)c3cccc(F)c3)c3ccc(C(F)(C(F)(F)F)C(F)(F)F)nc3CCC12 (some centres unmarked) [Example 25]	12
O=C(O)C12CCC(C(=O)N3CCC4(S(=O)(=O)c5ccccc5)c5ccc(C(F)(C(F)(F)F)C(F)(F)F)nc5CCC34)(CC1)CC2 (centres unmarked) [Example 16]	6
CC(C)(O)CN1C(=O)CCN1C(=O)N1CCC2(S(=O)(=O)c3cccc(F)c3)c3ccc(C(F)(C(F)(F)F)C(F)(F)F)nc3CCC12 (centres unmarked) [Example 56]	28
O=C(O)C12CCC(C(=O)N3CCC4(S(=O)(=O)c5ccc(F)cc5)c5ncc(C(F)(C(F)(F)F)C(F)(F)F)cc5CCC34)(CC1)CC2 (centres unmarked) [Example 6]	54
CC(C)(CO)CN1C(=O)[C@H](F)C[C@H]1C(=O)N1CCC2(S(=O)(=O)c3cccc(F)c3)c3ccc(C(F)(C(F)(F)F)C(F)(F)F)nc3CCC12 (some centres unmarked) [Example 37]	9
CC(C)(O)CN1C(=O)CCN1C(=O)N1CCC2(S(=O)(=O)c3ccccc3)c3ccc(C(F)(C(F)(F)F)C(F)(F)F)nc3CCC12 (centres unmarked) [Example 58]	12
C[C@H]1C[C@H](C(=O)O)CC[C@H]1C(=O)N1CCC2(S(=O)(=O)c3cccc(F)c3)c3cnc(C(F)(C(F)(F)F)C(F)(F)F)cc3CCC12 (some centres unmarked) [Example 27]	21
C[C@H]1C[C@H](C(N)=O)CC[C@H]1C(=O)N1CCC2(S(=O)(=O)c3ccc(F)cc3)c3ncc(C(F)(C(F)(F)F)C(F)(F)F)cc3CCC12 (single isomer, unassigned) [Example 59]	594
O=C(O)[C@H]1CC[C@H](C(=O)N2CCC3(S(=O)(=O)c4ccc(F)cc4)c4ccc(C(F)(C(F)(F)F)C(F)(F)F)nc4CCC23)CC1 (some centres unmarked) [Example 33]	8
N#CCCN1C(=O)CC[C@H]1C(=O)N1CCC2(S(=O)(=O)c3cccc(F)c3)c3ccc(C(F)(C(F)(F)F)C(F)(F)F)nc3CCC12 (some centres unmarked) [Example 21]	11
[2H]C([2H])([2H])N1C(=O)[C@H](F)C[C@H]1C(=O)N1CCC2(S(=O)(=O)c3cccc(F)c3)c3cnc(C(F)(C(F)(F)F)C(F)(F)F)cc3CCC12 (some centres unmarked) [Example 65]	91
CC(C)(O)CN1C(=O)[C@H](F)C[C@@H]1C(=O)N1CCC2(S(=O)(=O)c3cccc(F)c3)c3ccc(C(F)(C(F)(F)F)C(F)(F)F)nc3CCC12 (some centres unmarked) [Example 46]	410
CC(C)(O)CN1C(=O)[C@H](F)C[C@@H]1C(=O)N1CCC2(S(=O)(=O)c3ccc(F)cc3)c3ccc(C(F)(C(F)(F)F)C(F)(F)F)nc3CCC12 (single isomer, unassigned) [Example 44]	168
O=C1N[C@H](C(=O)N2CCC3(S(=O)(=O)c4cccc(F)c4)c4ccc(C(F)(C(F)(F)F)C(F)(F)F)nc4CCC23)[C@H]2C[C@@H]12 (single isomer, unassigned) [Example 34, trifluoroacetate]	62
NC(=O)C12CCC(C(=O)N3CCC4(S(=O)(=O)c5ccc(F)cc5)c5ncc(C(F)(C(F)(F)F)C(F)(F)F)cc5CCC34)(CC1)CC2 (centres unmarked) [Example 7]	83

SMILES	IC50 [nM]
C[C@H]1C[C@H](C(=O)O)CC[C@H]1C(=O)N1CCC2(S(=O)(=O)c3ccccc3)c3ccc(C(F)(C(F)(F)F)C(F)(F)F)nc3CCC12 (some centres unmarked) [Example 29]	13
N#CCCN1C(=O)CC[C@H]1C(=O)N1CCC2(S(=O)(=O)c3cccc(F)c3)c3cnc(C(F)(C(F)(F)F)C(F)(F)F)cc3CCC12 (some centres unmarked) [Example 14]	4
O=C([C@@H]1CCC(=O)N1Cc1ccc(F)cc1)N1CCC2(S(=O)(=O)c3ccc(F)cc3)c3ncc(C(F)(C(F)(F)F)C(F)(F)F)cc3CCC12 (some centres unmarked) [Example 3]	61
CC(C)(O)CN1C(=O)[C@H](F)C[C@@H]1C(=O)N1CCC2(S(=O)(=O)c3ccc(F)cc3)c3cnc(C(F)(C(F)(F)F)C(F)(F)F)cc3CCC12 (some centres unmarked) [Example 45]	528
[2H]C([2H])([2H])N1C(=O)[C@H](F)C[C@H]1C(=O)N1CCC2(S(=O)(=O)c3ccc(F)cc3)c3ccc(C(F)(C(F)(F)F)C(F)(F)F)nc3CCC12 (some centres unmarked) [Example 64]	24
CC(C)(O)C(=O)N1CCC2(S(=O)(=O)c3ccccc3)c3ccc(C(F)(C(F)(F)F)C(F)(F)F)nc3CCC12 (centres unmarked) [Example 17]	45
O=C([C@@H]1C[C@@H](F)C(=O)N1CCO)N1CCC2(S(=O)(=O)c3ccc(F)cc3)c3ncc(C(F)(C(F)(F)F)C(F)(F)F)cc3CCC12 (single isomer, unassigned) [Example 36]	110
CC(C)(O)CC(=O)N1CCC2(S(=O)(=O)c3ccccc3)c3ccc(C(F)(C(F)(F)F)C(F)(F)F)nc3CCC12 (centres unmarked) [Example 18]	30
O=C(C1CCS(=O)(=O)CC1)N1CCC2(S(=O)(=O)c3cccc(F)c3)c3cnc(C(F)(C(F)(F)F)C(F)(F)F)cc3CCC12 (centres unmarked) [Example 15]	8
O=C(CC1(O)CCS(=O)(=O)C1)N1CCC2(S(=O)(=O)c3ccc(F)cc3)c3ccc(C(F)(C(F)(F)F)C(F)(F)F)nc3CCC12 (centres unmarked) [Example 10]	33
O=C(C1CCS(=O)(=O)CC1)N1CCC2(S(=O)(=O)c3cccc(F)c3)c3ccc(C(F)(C(F)(F)F)C(F)(F)F)nc3CCC12 (centres unmarked) [Example 22]	9
O=C1N[C@H](C(=O)N2CCC3(S(=O)(=O)c4cccc(F)c4)c4cnc(C(F)(C(F)(F)F)C(F)(F)F)cc4CCC23)[C@H]2C[C@@H]12 (some centres unmarked) [Example 35]	3300
O=C(N1CCC2(S(=O)(=O)c3ccccc3)c3ccc(OCc4c(Cl)cccc4Cl)nc3CCC12)C(F)(F)F (single isomer, unassigned) [Example 61]	802
C[C@H]1C[C@H](C(=O)O)CC[C@H]1C(=O)N1CCC2(S(=O)(=O)c3ccc(F)cc3)c3ccc(C(F)(C(F)(F)F)C(F)(F)F)nc3CCC12 (some centres unmarked) [Example 32]	5
CC(C)(O)CN1C(=O)CCN1C(=O)N1CCC2(S(=O)(=O)c3ccc(F)cc3)c3ccc(C(F)(C(F)(F)F)C(F)(F)F)nc3CCC12 (single isomer, unassigned) [Example 54, 1-(9b-((4-fluorophenyl)sulfonyl)-7-(perfluoropropan-2-yl)-2,3,3a,4,5,9b-hexahydro-1H-pyrrolo[3,2-f]quinoline-3-carbonyl)-2-(2-hydroxy-2-methylpropyl)pyrazolidin-3-one]	16
CC(C)(O)CN1C(=O)[C@H](F)C[C@H]1C(=O)N1CCC2(S(=O)(=O)c3cccc(F)c3)c3ccc(C(F)(C(F)(F)F)C(F)(F)F)nc3CCC12 (some centres unmarked) [Example 48]	26
N#CCCN1C(=O)CC[C@H]1C(=O)N1CCC2(S(=O)(=O)c3ccc(F)cc3)c3ccc(C(F)(C(F)(F)F)C(F)(F)F)nc3CCC12 (single isomer, unassigned) [Example 42]	43
CC(C)(O)CN1C(=O)[C@H](F)C[C@H]1C(=O)N1CCC2(S(=O)(=O)c3ccccc3)c3ccc(C(F)(C(F)(F)F)C(F)(F)F)nc3CCC12 (some centres unmarked) [Example 53]	18
O=C(O)[C@H]1CC[C@H](C(=O)N2CCC3(S(=O)(=O)c4cccc(F)c4)c4ccc(C(F)(C(F)(F)F)C(F)(F)F)nc4CCC23)CC1 (some centres unmarked) [Example 24]	15
CC(C)(O)CN1C(=O)[C@H](F)C[C@H]1C(=O)N1CCC2(S(=O)(=O)c3cccc(F)c3)c3cnc(C(F)(C(F)(F)F)C(F)(F)F)cc3CCC12 (some centres unmarked) [Example 50]	14
CC(C)(O)CN1C(=O)[C@H](F)C[C@H]1C(=O)N1CCC2(S(=O)(=O)c3ccc(F)cc3)c3ccc(C(F)(C(F)(F)F)C(F)(F)F)nc3CCC12 (single isomer, unassigned) [Example 43]	31
CC(C)(O)CN1C(=O)CCN1C(=O)N1CCC2(S(=O)(=O)c3ccc(F)cc3)c3cnc(C(F)(C(F)(F)F)C(F)(F)F)cc3CCC12 (centres unmarked) [Example 55]	31
O=C(O)[C@H]1CC[C@H](C(=O)N2CCC3(S(=O)(=O)c4cccc(F)c4)c4cnc(C(F)(C(F)(F)F)C(F)(F)F)cc4CCC23)CC1 (some centres unmarked) [Example 26]	13
